According to ChEMBL document CHEMBL4507262, “Data for DCP probe A-1596586” (2021):

Key:
[1] = molecular target: Mitogen-activated protein kinase 3 (Homo sapiens) (UniProt P27361); conditions: Compound concentration 1000.0 nM
[2] = molecular target: Mitogen-activated protein kinase 15 (Homo sapiens) (UniProt Q8TD08); conditions: Compound concentration 1000.0 nM
[3] = molecular target: Sigma non-opioid intracellular receptor 1 (Homo sapiens, UniProt Q99720); test: GPCRScan assay: inhibition of Sigma 1; parameters: radioligand conc. used [nm] 4.0 – 5.0, parental cells HEKT
[4] = molecular target: Cannabinoid receptor 1 (Homo sapiens) (UniProt P21554); test: CB1 (h) Eurofins-Cerep binding assay; parameters: ligand concentration 0.5 nM; conditions: filed as agonist, Compound concentration 10.0 uM
[5] = molecular target: T1, Muscarinic acetylcholine receptor M4 (Homo sapiens) (UniProt P08173); conditions: Compound concentration 10.0 uM
T1 sequence (whole entry): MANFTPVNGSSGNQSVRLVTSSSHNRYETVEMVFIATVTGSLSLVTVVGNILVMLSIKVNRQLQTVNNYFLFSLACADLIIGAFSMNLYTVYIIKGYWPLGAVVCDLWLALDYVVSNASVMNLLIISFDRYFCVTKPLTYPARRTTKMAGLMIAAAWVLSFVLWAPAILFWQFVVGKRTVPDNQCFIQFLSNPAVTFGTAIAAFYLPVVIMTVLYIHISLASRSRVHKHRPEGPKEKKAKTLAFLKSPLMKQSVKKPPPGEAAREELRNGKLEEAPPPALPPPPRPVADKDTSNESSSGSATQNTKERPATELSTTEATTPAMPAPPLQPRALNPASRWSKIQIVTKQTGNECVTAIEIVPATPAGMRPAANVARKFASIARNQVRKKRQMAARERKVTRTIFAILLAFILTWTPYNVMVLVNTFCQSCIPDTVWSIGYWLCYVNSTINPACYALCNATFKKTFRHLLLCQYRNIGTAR

[6] = molecular target: Calcium/calmodulin-dependent protein kinase kinase 2 (Homo sapiens) (UniProt Q96RR4); conditions: Compound concentration 1000.0 nM
[7] = tested on: Receptor-type tyrosine-protein kinase FLT3 (Homo sapiens), P36888 [K663Q]; conditions: Compound concentration 1000.0 nM
[8] = molecular target: Dual specificity mitogen-activated protein kinase kinase 4 (Homo sapiens) (UniProt P45985); conditions: Compound concentration 1000.0 nM
[9] = molecular target: Bone morphogenetic protein receptor type-1A (Homo sapiens) (UniProt P36894); conditions: Compound concentration 1000.0 nM
[10] = molecular target: Cyclin-dependent kinase-like 2 (Homo sapiens) (UniProt Q92772); conditions: Compound concentration 1000.0 nM
[11] = molecular target: Serine/threonine-protein kinase Nek7 (Homo sapiens) (UniProt Q8TDX7); conditions: Compound concentration 1000.0 nM
[12] = molecular target: Sodium- and chloride-dependent GABA transporter 1 (Rattus norvegicus) (UniProt P23978); test: GABA transporter Eurofins-Cerep binding assay; parameters: ligand concentration 10 nM; conditions: filed as antagonist, Compound concentration 10.0 uM
[13] = molecular target: Tyrosine-protein kinase Blk (Homo sapiens) (UniProt P51451); conditions: Compound concentration 1000.0 nM
[14] = molecular target: Dual specificity tyrosine-phosphorylation-regulated kinase 2 (Homo sapiens) (UniProt Q92630); conditions: Compound concentration 1000.0 nM
[15] = molecular target: Ephrin type-B receptor 3 (Homo sapiens) (UniProt P54753); conditions: Compound concentration 1000.0 nM
[16] = molecular target: Ribosomal protein S6 kinase alpha-5 (Homo sapiens) (UniProt O75582); conditions: Compound concentration 1000.0 nM
[17] = molecular target: Serine/threonine-protein kinase MRCK alpha (Homo sapiens) (UniProt Q5VT25); conditions: Compound concentration 1000.0 nM
[18] = molecular target: 5'-AMP-activated protein kinase catalytic subunit alpha-2 (Homo sapiens) (UniProt P54646); conditions: Compound concentration 1000.0 nM
[19] = molecular target: Phosphatidylinositol 4-phosphate 3-kinase C2 domain-containing subunit beta (Homo sapiens) (UniProt O00750); conditions: Compound concentration 1000.0 nM
[20] = molecular target: Serine/threonine-protein kinase TAO2 (Homo sapiens) (UniProt Q9UL54); conditions: Compound concentration 1000.0 nM
[21] = molecular target: Cyclin-dependent kinase 16 (Homo sapiens) (UniProt Q00536); conditions: Compound concentration 1000.0 nM
[22] = molecular target: Misshapen-like kinase 1 (Homo sapiens) (UniProt Q8N4C8); conditions: Compound concentration 1000.0 nM
[23] = molecular target: Serine/threonine-protein kinase N2 (Homo sapiens) (UniProt Q16513); conditions: Compound concentration 1000.0 nM
[24] = molecular target: Megakaryocyte-associated tyrosine-protein kinase (Homo sapiens) (UniProt P42679); conditions: Compound concentration 1000.0 nM
[25] = molecular target: Serine/threonine-protein kinase tousled-like 2 (Homo sapiens) (UniProt Q86UE8); conditions: Compound concentration 1000.0 nM
[26] = molecular target: Mitogen-activated protein kinase kinase kinase 13 (Homo sapiens) (UniProt O43283); conditions: Compound concentration 1000.0 nM
[27] = molecular target: Mitogen-activated protein kinase kinase kinase 10 (Homo sapiens) (UniProt Q02779); conditions: Compound concentration 1000.0 nM
[28] = molecular target: 5-hydroxytryptamine receptor 7 (Homo sapiens) (UniProt P34969); test: 5-HT7 (h) Eurofins-Cerep binding assay; parameters: ligand concentration 4 nM; conditions: filed as agonist, Compound concentration 10.0 uM
[29] = tested on: Mast/stem cell growth factor receptor Kit (Homo sapiens), P10721 [V559D]; conditions: Compound concentration 1000.0 nM
[30] = molecular target: LIM domain kinase 1 (Homo sapiens) (UniProt P53667); conditions: Compound concentration 1000.0 nM
[31] = molecular target: Ribosomal protein S6 kinase alpha-2 (Homo sapiens) (UniProt Q15349); conditions: Compound concentration 1000.0 nM
[32] = molecular target: Alpha-1D adrenergic receptor (Homo sapiens) (UniProt P25100); conditions: Compound concentration 10.0 uM
[33] = molecular target: Non-receptor tyrosine-protein kinase TYK2 (Homo sapiens) (UniProt P29597); conditions: Compound concentration 1000.0 nM
[34] = tested on: Epidermal growth factor receptor (Homo sapiens), P00533 [UNDEFINED MUTATION]; conditions: Compound concentration 1000.0 nM
[35] = tested on: Phosphatidylinositol 4,5-bisphosphate 3-kinase catalytic subunit alpha isoform (Homo sapiens), P42336 [E542K]; conditions: Compound concentration 1000.0 nM
[36] = tested on: Epidermal growth factor receptor (Homo sapiens), P00533 [G719S]; conditions: Compound concentration 1000.0 nM
[37] = molecular target: Cyclin-dependent kinase 17 (Homo sapiens) (UniProt Q00537); conditions: Compound concentration 1000.0 nM
[38] = molecular target: Tyrosine-protein kinase receptor Tie-1 (Homo sapiens) (UniProt P35590); conditions: Compound concentration 1000.0 nM

Phosphatidylinositol 4,5-bisphosphate 3-kinase catalytic subunit alpha isoform (Homo sapiens), P42336 [E542K], sequence (P42336 whole entry E542K, canonical isoform): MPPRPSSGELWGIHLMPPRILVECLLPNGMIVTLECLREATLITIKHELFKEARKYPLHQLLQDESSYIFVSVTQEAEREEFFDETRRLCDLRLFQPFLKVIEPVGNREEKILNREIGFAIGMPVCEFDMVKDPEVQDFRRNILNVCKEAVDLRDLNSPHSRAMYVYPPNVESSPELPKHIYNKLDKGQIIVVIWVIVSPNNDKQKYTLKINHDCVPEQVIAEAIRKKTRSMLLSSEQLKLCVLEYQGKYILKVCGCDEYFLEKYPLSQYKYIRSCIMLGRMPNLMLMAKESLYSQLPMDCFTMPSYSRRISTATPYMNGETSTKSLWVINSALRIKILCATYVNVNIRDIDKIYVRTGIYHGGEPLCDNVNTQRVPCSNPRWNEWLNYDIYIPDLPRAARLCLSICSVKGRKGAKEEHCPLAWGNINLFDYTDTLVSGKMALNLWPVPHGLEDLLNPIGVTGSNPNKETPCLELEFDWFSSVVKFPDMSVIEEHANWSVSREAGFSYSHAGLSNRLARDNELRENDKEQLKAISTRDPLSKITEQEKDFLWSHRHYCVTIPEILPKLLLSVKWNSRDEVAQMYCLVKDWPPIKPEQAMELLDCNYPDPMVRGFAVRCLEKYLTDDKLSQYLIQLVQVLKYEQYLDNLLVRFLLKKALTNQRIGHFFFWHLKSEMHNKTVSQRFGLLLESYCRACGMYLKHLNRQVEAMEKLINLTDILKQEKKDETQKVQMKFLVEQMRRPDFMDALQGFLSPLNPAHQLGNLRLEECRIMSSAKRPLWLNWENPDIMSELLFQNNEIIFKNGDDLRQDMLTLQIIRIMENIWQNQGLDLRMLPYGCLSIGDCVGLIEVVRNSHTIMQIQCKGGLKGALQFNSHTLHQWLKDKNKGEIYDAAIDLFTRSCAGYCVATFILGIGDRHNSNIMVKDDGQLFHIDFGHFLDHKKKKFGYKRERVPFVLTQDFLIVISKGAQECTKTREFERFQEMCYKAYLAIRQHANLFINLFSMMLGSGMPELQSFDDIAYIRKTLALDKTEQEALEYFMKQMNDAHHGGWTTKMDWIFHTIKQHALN
Serine/threonine-protein kinase Nek7 (Homo sapiens), sequence (Q8TDX7 whole entry, looked up): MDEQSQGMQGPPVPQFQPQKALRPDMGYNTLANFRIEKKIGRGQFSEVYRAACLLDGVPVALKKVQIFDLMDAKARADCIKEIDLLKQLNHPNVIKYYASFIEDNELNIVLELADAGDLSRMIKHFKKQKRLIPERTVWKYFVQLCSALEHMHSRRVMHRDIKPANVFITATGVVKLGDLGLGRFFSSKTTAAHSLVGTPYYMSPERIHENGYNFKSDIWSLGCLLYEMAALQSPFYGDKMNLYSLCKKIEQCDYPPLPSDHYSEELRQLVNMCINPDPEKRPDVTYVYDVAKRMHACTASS
Mitogen-activated protein kinase 15 (Homo sapiens), sequence (Q8TD08 whole entry): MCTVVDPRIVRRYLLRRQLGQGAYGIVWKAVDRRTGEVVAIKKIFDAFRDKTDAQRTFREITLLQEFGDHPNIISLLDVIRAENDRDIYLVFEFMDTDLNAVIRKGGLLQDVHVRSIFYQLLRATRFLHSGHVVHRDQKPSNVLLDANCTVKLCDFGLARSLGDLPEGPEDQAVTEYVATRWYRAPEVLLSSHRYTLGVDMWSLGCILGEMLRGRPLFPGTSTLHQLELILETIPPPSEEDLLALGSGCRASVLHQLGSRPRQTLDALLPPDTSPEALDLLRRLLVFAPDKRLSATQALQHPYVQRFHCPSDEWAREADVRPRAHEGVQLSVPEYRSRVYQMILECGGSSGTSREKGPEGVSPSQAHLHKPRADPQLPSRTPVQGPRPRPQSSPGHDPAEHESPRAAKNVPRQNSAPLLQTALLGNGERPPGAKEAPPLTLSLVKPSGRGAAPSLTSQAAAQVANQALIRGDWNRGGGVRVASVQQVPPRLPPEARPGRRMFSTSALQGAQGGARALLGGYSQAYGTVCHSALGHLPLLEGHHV
Cyclin-dependent kinase-like 2 (Homo sapiens), sequence (Q92772 whole entry): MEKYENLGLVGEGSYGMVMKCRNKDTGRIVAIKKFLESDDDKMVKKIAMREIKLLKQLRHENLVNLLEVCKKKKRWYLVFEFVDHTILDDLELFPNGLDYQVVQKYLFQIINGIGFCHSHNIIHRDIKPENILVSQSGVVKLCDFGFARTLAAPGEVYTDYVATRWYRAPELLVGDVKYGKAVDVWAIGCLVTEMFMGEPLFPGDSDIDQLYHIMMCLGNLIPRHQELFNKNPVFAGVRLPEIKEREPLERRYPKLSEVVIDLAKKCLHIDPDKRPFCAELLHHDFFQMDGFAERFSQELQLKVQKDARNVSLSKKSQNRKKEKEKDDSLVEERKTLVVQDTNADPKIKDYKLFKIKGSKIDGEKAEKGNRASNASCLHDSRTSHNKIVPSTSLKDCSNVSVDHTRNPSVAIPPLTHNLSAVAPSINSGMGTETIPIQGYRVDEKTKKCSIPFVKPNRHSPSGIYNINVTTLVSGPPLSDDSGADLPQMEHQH
Ribosomal protein S6 kinase alpha-5 (Homo sapiens), sequence (O75582 whole entry, looked up): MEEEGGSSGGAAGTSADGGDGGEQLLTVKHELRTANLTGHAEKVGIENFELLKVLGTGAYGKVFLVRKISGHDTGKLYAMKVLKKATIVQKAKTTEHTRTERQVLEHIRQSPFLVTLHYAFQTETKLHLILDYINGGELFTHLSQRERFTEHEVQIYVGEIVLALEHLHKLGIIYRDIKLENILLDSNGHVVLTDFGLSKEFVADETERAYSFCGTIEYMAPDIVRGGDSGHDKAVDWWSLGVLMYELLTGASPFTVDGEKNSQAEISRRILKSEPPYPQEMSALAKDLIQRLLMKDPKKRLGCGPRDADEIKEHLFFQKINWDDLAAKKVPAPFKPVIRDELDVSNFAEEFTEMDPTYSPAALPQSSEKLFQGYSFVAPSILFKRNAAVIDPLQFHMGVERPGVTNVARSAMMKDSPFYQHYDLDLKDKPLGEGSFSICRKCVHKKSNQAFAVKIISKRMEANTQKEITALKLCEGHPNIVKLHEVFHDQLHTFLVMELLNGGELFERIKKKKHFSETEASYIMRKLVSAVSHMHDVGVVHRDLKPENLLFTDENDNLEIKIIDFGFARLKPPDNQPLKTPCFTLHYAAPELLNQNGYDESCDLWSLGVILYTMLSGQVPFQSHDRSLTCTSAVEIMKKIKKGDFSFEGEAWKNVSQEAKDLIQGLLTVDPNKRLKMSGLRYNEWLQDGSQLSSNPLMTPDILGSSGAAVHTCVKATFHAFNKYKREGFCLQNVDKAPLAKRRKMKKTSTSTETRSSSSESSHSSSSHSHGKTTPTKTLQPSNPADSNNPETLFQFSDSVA
Serine/threonine-protein kinase N2 (Homo sapiens), sequence (Q16513 whole entry, looked up): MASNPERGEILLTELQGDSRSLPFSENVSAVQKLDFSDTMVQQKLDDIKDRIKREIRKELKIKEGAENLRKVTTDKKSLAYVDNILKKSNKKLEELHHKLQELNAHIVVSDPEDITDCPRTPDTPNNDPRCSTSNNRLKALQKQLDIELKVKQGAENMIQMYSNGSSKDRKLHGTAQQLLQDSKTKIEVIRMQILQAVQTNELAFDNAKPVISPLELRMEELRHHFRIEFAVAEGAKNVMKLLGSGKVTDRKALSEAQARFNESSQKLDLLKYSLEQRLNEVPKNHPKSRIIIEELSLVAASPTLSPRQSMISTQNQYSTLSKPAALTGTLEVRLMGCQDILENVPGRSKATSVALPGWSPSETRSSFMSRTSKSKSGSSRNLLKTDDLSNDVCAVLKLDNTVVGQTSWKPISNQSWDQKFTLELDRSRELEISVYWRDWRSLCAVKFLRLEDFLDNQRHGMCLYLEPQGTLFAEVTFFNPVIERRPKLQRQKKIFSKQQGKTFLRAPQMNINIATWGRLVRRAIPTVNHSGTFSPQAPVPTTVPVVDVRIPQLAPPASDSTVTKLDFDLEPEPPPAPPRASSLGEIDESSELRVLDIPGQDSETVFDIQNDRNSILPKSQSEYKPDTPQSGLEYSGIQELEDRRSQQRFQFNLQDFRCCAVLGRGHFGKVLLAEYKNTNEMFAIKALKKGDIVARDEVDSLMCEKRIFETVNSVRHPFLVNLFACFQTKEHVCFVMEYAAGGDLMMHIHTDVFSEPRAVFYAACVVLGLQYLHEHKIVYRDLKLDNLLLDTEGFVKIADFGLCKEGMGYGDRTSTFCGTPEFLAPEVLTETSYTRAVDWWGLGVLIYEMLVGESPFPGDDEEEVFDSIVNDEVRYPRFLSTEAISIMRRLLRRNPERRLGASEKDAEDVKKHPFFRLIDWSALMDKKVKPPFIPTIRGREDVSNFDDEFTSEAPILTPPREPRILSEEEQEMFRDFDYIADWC
Sigma non-opioid intracellular receptor 1, sequence (Q99720 whole entry): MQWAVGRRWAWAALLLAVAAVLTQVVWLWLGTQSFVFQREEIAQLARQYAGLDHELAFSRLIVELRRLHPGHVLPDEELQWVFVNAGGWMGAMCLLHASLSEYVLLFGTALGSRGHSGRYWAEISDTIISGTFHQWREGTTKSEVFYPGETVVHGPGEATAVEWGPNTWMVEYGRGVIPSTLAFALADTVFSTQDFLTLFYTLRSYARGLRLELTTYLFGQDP
Mitogen-activated protein kinase 3 (Homo sapiens), sequence (P27361 whole entry): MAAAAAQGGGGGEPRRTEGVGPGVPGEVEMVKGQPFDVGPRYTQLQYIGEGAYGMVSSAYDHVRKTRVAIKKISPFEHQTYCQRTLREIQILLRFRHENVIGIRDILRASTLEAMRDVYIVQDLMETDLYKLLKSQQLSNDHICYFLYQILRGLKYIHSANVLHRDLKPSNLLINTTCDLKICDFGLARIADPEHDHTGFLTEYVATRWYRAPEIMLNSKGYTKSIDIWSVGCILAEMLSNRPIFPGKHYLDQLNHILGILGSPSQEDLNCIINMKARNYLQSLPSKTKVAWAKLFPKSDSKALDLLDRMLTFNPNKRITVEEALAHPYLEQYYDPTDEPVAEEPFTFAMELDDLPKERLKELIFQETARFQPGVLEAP

Structure (SMILES) | residual activity [1] [%] | residual activity [2] [%] | Ki [3] [nM] | % Inhibition of Control Specific Binding (Mean n=2) [4] [%] | inhibition [5] [%] | residual activity [6] [%] | residual activity [7] [%] | residual activity [8] [%] | residual activity [9] [%] | residual activity [10] [%] | residual activity [11] [%] | % Inhibition of Control Specific Binding (Mean n=2) [12] [%] | residual activity [13] [%] | residual activity [14] [%] | residual activity [15] [%] | residual activity [16] [%] | residual activity [17] [%] | residual activity [18] [%] | residual activity [19] [%] | residual activity [20] [%] | further results
COc1ccc2c(c1)O[C@H](c1ccc(OC)c(OC)c1)C[C@@H]2NC(=O)C1(c2ccc3c(c2)OC(F)(F)O3)CC1 [A-1596584] | 100 | 100 | 2740 | 46 | 0.59 | 100 | 100 | 100 | 98 | 100 | 100 | -15.1 | 100 | 100 | 91 | 100 | 100 | 98 | 96 | 98 | residual activity [21]: 100%; residual activity [22]: 100%; residual activity [23]: 100%; residual activity [24]: 100%; residual activity [25]: 98%; residual activity [26]: 91%; residual activity [27]: 97%; % Inhibition of Control Specific Binding (Mean n=2) [28]: -6.4%; residual activity [29]: 100%; residual activity [30]: 98%; residual activity [31]: 100%; inhibition [32]: 0.16%; residual activity [33]: 85%; residual activity [34]: 64%; residual activity [35]: 95%; residual activity [36]: 99%; residual activity [37]: 100%; residual activity [38]: 100%
COc1ccc2c(c1)O[C@@H](c1ccc(OC)c(OC)c1)C[C@H]2NC(=O)C1(c2ccc3c(c2)OC(F)(F)O3)CC1 [A-1596586] | 89 | 100 | 315 | 40.8 | -2.72 | 96 | 100 | 92 | 92 | 100 | 100 | -17.9 | 91 | 75 | 90 | 100 | 90 | 100 | 96 | 83 | residual activity [21]: 88%; residual activity [22]: 77%; residual activity [23]: 100%; residual activity [24]: 93%; residual activity [25]: 100%; residual activity [26]: 67%; residual activity [27]: 100%; % Inhibition of Control Specific Binding (Mean n=2) [28]: -6.3%; residual activity [29]: 86%; residual activity [30]: 100%; residual activity [31]: 90%; inhibition [32]: 2.75%; residual activity [33]: 65%; residual activity [34]: 68%; residual activity [35]: 79%; residual activity [36]: 91%; residual activity [37]: 100%; residual activity [38]: 100%
